The text below walks through data of patent publication US20230134986A1, “GLUCOSE TRIPTOLIDE CONJUGATES AND USES THEREOF” (The Johns Hopkins University, priority 2020, published 2023).

For orientation: IC50 means the concentration at which inhibition is half-maximal.

Where two headings read alike, the source gives them in different places.

One series deals with MDA MB231 cells. The series is described as follows: MDA MB231 proliferation under hypoxia ([3H]-thymidine incorporation). It counts as cell-based, human. The conditions noted are these: MDA MB231, 1% O2, 48 h post treatment. (In general: Dividing cells build labelled thymidine or BrdU into new DNA.)
For another series, the system named is Rpb1 in 293T WT cells. The series is described as follows: RPB1 degradation in 293T WT cells, western blot. It counts as cell-based, human. The conditions noted are these: 0.1 mM triptolide (so in the source); 0.1 μM). From the text: (§1) Cells and culture conditions. Primary astrocytes (Lonza, Walkersville, Md.; ABM™ Basal Media with AGM™ SingleQuots™ Supplement Pack), fibroblast (ATCC; Fibroblast Basal Medium (ATCC© PCS-201-030™) with Fibroblast Growth Kit-Serum-free (ATCC© PCS-201-040™)), airway epithelial cell (ATCC; Airway Epithelial Cell Basal Medium (ATCC© PCS-300-030™) with Bronchial Epithelial Cell Growth Kit (ATCC© PCS-300-040™)), renal proximal tubule (ATCC; Renal Epithelial Cell Basal Medium (ATCC© PCS-400-030™) with Renal Epithelial Cell Growth Kit (ATCC© PCS-400-040™)), prostate epithelial cell (Lonza; PrEGM™ BulletKit™) and mammary epithelial cell (Lonza; MEBM™ BulletKit™) were kept in a humidified incubator at 37° C. adjusted to 5% CO2. […]
(§2) Western blot analysis. […] Antibody-protein complexes were detected using enhanced chemiluminescence (ECL) immunoblotting detection reagent (EMD Millipore).
(In western blotting, separated proteins are transferred to a membrane and probed.)

For series [1], the system named is RPB1 in C342T XPB mutant cell line. The series is described as follows: RPB1 degradation in C342T XPB knock-in cells, western blot. The conditions noted are these: XPB C342T cells, 0.1 mM triptolide (so in the source); 0.1 μM). It counts as cell-based, human.
Source text: as §1, §2

The next series has as its system HepG2. In words: HepG2 proliferation under hypoxia ([3H]-thymidine incorporation). It counts as cell-based, human. Conditions: HepG2, 1% O2, 48 h post treatment.
The subject of the next series is PC3 cells. In words: PC3 proliferation under hypoxia or normoxia ([3H]-thymidine incorporation). Type of series: cell-based, human. Conditions: for IC50: Homo sapiens, PC-3, 48 h, 48 h post treatment, read-out: IC50. The procedure: (§3) Proliferation and viability assays. [^3H]-thymidine incorporation. HEK293T cells (10,000 cells/well) were seeded into 96-well plates then cultured in DMEM plus 10% FBS and 1% penicillin/streptomycin at 37° C. with 5% CO2 overnight. Drugs were added at indicated concentrations and incubation was continued for an additional 24 h. For hypoxia, PC3 (5,000 cells/well) were exposed to 1% O2 (Airgas) in a humidified hypoxia chamber (Billups-Rothenberg) in 37° C. for 48 h prior to drug exposure for 48 h. Treated cells were then pulsed using an aliquot of 1 μCi of [^3H]-thymidine (Perkin Elmer) per well for an additional 6 h. Radiolabelled cells were harvested onto a printed Filtermat A glass fiber filter (Perkin Elmer) using a Tomtec Harvester 96 Mach III M. Betaplate Scint (Perkin Elmer) scintillation fluid was added to radiolabelled filters followed by scintillation counting on Microbeta2 LumiJET Microplate Counter (Perkin Elmer).

Another series deals with HeLa. The series is described as follows: HeLa proliferation under hypoxia ([3H]-thymidine incorporation). It counts as cell-based, human. Conditions: 1% O2, 48 h post treatment.
For a further series, the system named is HEK 293T cells. In words: HEK293T cell proliferation assay ([3H]-thymidine incorporation). Type of series: cell-based, human. Conditions: Homo sapiens; anti-proliferative activity, HEK 293T cells, 24 h drug exposure; read-out: IC50 ± SEM.
Source text: Cells and culture conditions. Primary astrocytes (Lonza, Walkersville, Md.; ABM™ Basal Media with AGM™ SingleQuots™ Supplement Pack), fibroblast (ATCC; Fibroblast Basal Medium (ATCC© PCS-201-030™) with Fibroblast Growth Kit-Serum-free (ATCC© PCS-201-040™)), airway epithelial cell (ATCC; Airway Epithelial Cell Basal Medium (ATCC© PCS-300-030™) with Bronchial Epithelial Cell Growth Kit (ATCC© PCS-300-040™)), renal proximal tubule (ATCC; Renal Epithelial Cell Basal Medium (ATCC© PCS-400-030™) with Renal Epithelial Cell Growth Kit (ATCC© PCS-400-040™)), prostate epithelial cell (Lonza; PrEGM™ BulletKit™) and mammary epithelial cell (Lonza; MEBM™ BulletKit™) were kept in a humidified incubator at 37° C. adjusted to 5% CO2. Prostate (PC3, LNCaP, DU-145), breast (MDA-MB-231, MDA-MB-453, SK-BR-3), head and neck (A253, Detroit 562, SCC-25), melanoma (SK-Mel-3, SK-Mel-1, RPMI-7951), pancreatic (CfPAC-1, BxPC3, SW1990), lung (A549, NCI-H1299, NCI-H1437) and liver (SNU-475, SK-HEP-1, SNU-387) cancer cell lines were obtained from ATCC and cultured in their respective media (prostate cells: RPMI-1640, MDA-MB-231: RPMI-1640, MDA-MB-453: Leibovitz's L-15, SK-BR-3: McCoy's 5a, A253: McCoy's 5a, Detroit 562: EMEM, SCC-25: DMEM, SK-Mel-3: McCoy's 5a, SK-Mel-1: EMEM, RPMI-7951: EMEM), CfPAC-1: IMDM, BxPC3: RPMI-1640, SW1990: Leibovitz's L-15), A549: F-12K, NCI-H1299: RPMI-1640, NCI-H1437: RPMI-1640, SNU-475: RPMI-1640, SK-HEP-1: EMEM, SNU-387: RPMI-1640. All media were supplemented with 10% (vol/vol) filtered fetal bovine serum (FBS, Invitrogen, Carlsbad, Calif.), 1% penicillin/streptomycin (Invitrogen) and maintained in a humidified incubator at 37° C. with 5% CO2 except for MDA-MB-453 and SW1990 grown at 37° C. without CO2 control. Wild type (ATCC) and C342T XPB knock-in cells (named T7115) of Human Embryonic Kidney 293T (HEK293T), HeLa (ATCC) were cultured in DMEM (GIBCO) with 10% (vol/vol) filtered fetal bovine serum (FBS, Invitrogen, Carlsbad, Calif.), 1% penicillin/streptomycin (Invitrogen).
as §3

A further series concerns MCF-7. The series is described as follows: MCF-7 proliferation under hypoxia ([3H]-thymidine incorporation). It counts as cell-based, human. Conditions: MCF-7, 1% O2, 48 h post treatment.
In series [2] the test system is T7115 (C342T XPB knock-in HEK293T cells). In words: Proliferation of XPB C342T knock-in cell line T7115 ([3H]-thymidine incorporation). It counts as cell-based, human. Conditions: C342T XPB knock-in versus isogenic WT 293T.
Source text: as §1

The conditions of series [3]: lethal case dosed with 18 mg/m2 F60008; cited from earlier work.
The target of the next series is T1, TFIIH (Homo sapiens, UniProt P19447).
T1 construct: made in house
The series is described as follows: DNA-dependent ATPase activity assay of TFIIH. It counts as biochemical. The conditions noted are these: 200 nM triptolide. On the procedure: ATPase activity assay. The TFIIH complex was purified and its DNA-dependent ATPase assay was performed as previously described (Titov et al. (2011) Nat. Chem. Biol. 7:182-88). Briefly, a 10-μl reaction mixture contained 20 mM Tris (pH 7.9), 4 mM MgCl2, 1 μM of ATP, 0.1 μCi [^γ-^32P]ATP (3000 Ci/mmol), 100 μg/ml BSA, 100 nM RNA Polymerase II promoter positive control DNA, 1 nM TFIIH and indicated concentrations of triptolide or its analogs. The reactions were started by either addition of TFIIH for 2 hr and stopped by addition of 2 μl of 0.5 M EDTA. An aliquot of 1 μl reaction mixture was spotted on PEI-cellulose (sigma) and the chromatogram was developed with 0.5 M LiCi and 1 M HCOOH. The percent of ATP hydrolysis was quantified using a Typhoon FLA 9500 Variable Imager (GE Healthcare).

As for `CC(C)[C@]12O[C@H]1[C@@H]1O[C@]13[C@]1(O[C@H]1C[C@H]1C4=C(CC[C@@]13C)C(=O)OC4)[C@@H]2O` [TPL, (1S,2S,4S,5S,7R,8R,9S,11S,13 S)-8-hydroxy-1-methyl-7-propan-2-yl-3,6,10,16 tetraoxaheptacyclo[11.7.0.02,4.02,9.05,7.09,11.014,18] icos-14(18)-en-17-one, reference compound], the “effect of hypoxia on anti-proliferative effect” value is “modest anti-proliferative effect” in the series with MDA MB231 cells, “showed resistance upon hypoxia” in the series with HepG2, “modest anti-proliferative effect” in the series with HeLa and “modest anti-proliferative effect” in the series on MCF-7. In the series with Rpb1 in 293T WT cells, the “degradation of Rpb1” value is reported as “leads to the degradation of the Rpb1 subunit”. For the same compound, in [1], the Rpb1 level result is recorded as “Rpb1 levels resemble DMSO control”. The IC50 in the series with PC3 cells (PC3, hypoxic conditions (1% O2)) was 1.5 nM; in the series with PC3 cells (PC3, normoxic conditions (20% O2)) it was 4.5 nM; with HEK 293T cells it was 5.6 nM. For the same compound, the “fold enhancement of anti-proliferative effect during hypoxia” value in the series on PC3 cells (PC3, hypoxia versus normoxia) is recorded as “three-fold”. Further, the “sensitivity of T7115 mutant line (proliferation)” value in [2] is given as “resistant”. Also, the Maximum serum levels in [3] is 58.5 ng/mL. Also, the “Maximum serum levels (molar)” value in series [3] is given as approximately 0.16 mM. In addition, the “inhibition of ATPase activity of TFIIH” value against TFIIH is “effectively suppresses activity”; at TFIIH (listed as triptolide), “nearly completely inhibited”.
